Measurements from patent US8193220B1 (priority 2009, dated 2012).
Like-named read-outs stand apart in the source and are kept apart here.

Assays:
[1] = system: eye muscles (lateral rectus muscle); assay type: in vivo, human
[2] = system: eye muscles (lateral rectus muscle); conditions: bupivacaine injected into eye muscles of strabismus patients; cited from earlier work
[3] = system: extensor digitorum longus muscle; conditions: rat hind limb extensor digitorum longus; cited from earlier work

CCCCN1CCCCC1C(=O)Nc1c(C)cccc1C (stereo not drawn) [bupivacaine]
change of eye alignment ([1]; bupivacaine alone into lateral rectus): ineffective in changing eye alignment | correction of strabismus ([1]; human, in vivo): successful correction of strabismus | length of regenerated lateral rectus muscle ([1]; human, in vivo): shorter length | length of regenerated lateral rectus muscle ([1]; one case of esotropia, bupivacaine alone, antagonist medial rectus unopposed): longer muscle | myotoxicity and weakness of the injected lateral rectus muscle ([1]; one case of esotropia, bupivacaine alone, first injection): very pronounced | effect on strabismus deviations [2]: correction or improvement of strabismus deviations | period of hypertrophy (growth beyond the original state) after regeneration [2]: 20 to 30 days | period of muscle weakness after injection [2]: 7 to 16 days | muscle size after injection [3]: enlargement of the muscle beyond its original size
